Measurements taken from ChEMBL document CHEMBL1125073, “Antitubulin effects of derivatives of 3-demethylthiocolchicine, methylthio ethers of natural colchicinoids, and thioketones derived from thiocolchicine. Comparison with colchicinoids” (J Med Chem, 1990).

Tests used:
[1] = test system: L1210; assay: cells; conditions: Mus musculus
Description: In vitro cytotoxicity against L1210 (murine leukemia) cells.

[2] = species on record: Mus musculus; conditions: in vivo, im
Description: Acute toxicity after intramuscular injection in mice.

IC50 [1] | Structure (SMILES) | Toxicity [2]
40 nM | COc1cc2c(c(OC)c1OC)-c1ccc(SC)c(=S)cc1[C@@H](/N=C(/C)S)CC2 | –
– | COc1c2c(cc3c1-c1ccc(OC)c(=O)cc1[C@@H](NC(C)=O)CC3)OCO2 | 9.7 mg/kg
30 nM | COc1cc2c(c(OC)c1OC)-c1ccc(SC)c(=S)cc1[C@@H](NC(C)=O)CC2 | –
10 nM | COc1c2c(cc3c1-c1ccc(SC)c(=O)cc1[C@@H](NC(C)=O)CC3)OCO2 [THIOCORNIGERINE] | –
